Laboratory results from ChEMBL document CHEMBL1133053, “(S)-Thiirancarboxylic acid as a reactive building block for a new class of cysteine protease inhibitors” (Bioorg Med Chem Lett, 2000).

Experiments:
[1] = biological target: T1, Papain (Carica papaya) (UniProt P00784); assay: The second order rate constant of inactivation was reported
T1 sequence (whole entry): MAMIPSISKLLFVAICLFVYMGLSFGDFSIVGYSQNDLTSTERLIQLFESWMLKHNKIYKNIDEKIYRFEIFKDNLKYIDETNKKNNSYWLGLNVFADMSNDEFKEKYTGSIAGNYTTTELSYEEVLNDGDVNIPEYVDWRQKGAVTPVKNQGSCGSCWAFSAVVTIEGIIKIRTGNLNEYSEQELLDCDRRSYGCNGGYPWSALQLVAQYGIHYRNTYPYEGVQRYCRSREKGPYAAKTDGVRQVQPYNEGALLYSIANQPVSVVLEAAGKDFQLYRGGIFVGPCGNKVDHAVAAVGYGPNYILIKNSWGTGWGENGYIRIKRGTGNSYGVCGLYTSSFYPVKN

[2] = biological target: T1, Papain (Carica papaya); assay: The second order rate constant of inactivation was reported at pH 4
[3] = biological target: T2, Papain (Carica papaya, UniProt P00784); assay: The compound was evaluated for inhibition of papain.
T2 sequence (P00784 whole entry): T1 sequence (whole entry)

[4] = biological target: T1, Papain (Carica papaya); assay: The first order rate constant of inactivation was reported

| SMILES | K2 [1] [M⁻¹ s⁻¹] | IC50 [3] [nM] | also measured |
| --- | --- | --- | --- |
| CCOC(=O)[C@H]1N[C@@H]1C(=O)OCC | 0.183 |  | K2 [2]: 1.02 M⁻¹ s⁻¹ |
| O=C(O)[C@@H]1CN1 | 17 |  |  |
| CCOC(=O)[C@@H]1N[C@H]1C(=O)O | 58.8 |  |  |
| CCOC(=O)[C@H]1N[C@@H]1C(=O)O | 78.2 |  | K2 [2]: 413 M⁻¹ s⁻¹ |
| CCOC(=O)[C@@H]1O[C@H]1C(=O)OCC | 1.68 |  |  |
| O=C(O)[C@H]1CS1 | 3.7 |  |  |
| CCOC(=O)[C@H]1O[C@@H]1C(=O)OCC | 1.73 |  |  |
| CCOC(=O)[C@H]1CS1 |  | 570 | K1 [4]: 0.57 µM |
| COC(=O)[C@H]1CS1 |  | 200 | K1 [4]: 0.2 µM |
| CCOC(=O)C1OC1C(=O)O (stereo unspecified) |  | 10.5 |  |
| CCOC(=O)C1OC1C(=O)OCC (stereo unspecified) |  | 207 |  |
| CCOC(=O)[C@@H]1N[C@H]1C(=O)OCC | 0.2 |  |  |
